Experimental data as given in ChEMBL document CHEMBL3774345, “Synthesis of new diarylamides with pyrimidinyl pyridine scaffold and evaluation of their anti-proliferative effect on cancer cell lines” (Bioorg Med Chem Lett, 2016).

Key:
Type in all cases: functional
NCI-H322M = test: Cytotoxicity against human NCI-H322M cells assessed as cell growth at 10 uM after 24 hrs by SRB assay; settings: read-out: Activity
NCI-H460 = test: Cytotoxicity against human NCI-H460 cells assessed as cell growth at 10 uM after 24 hrs by SRB assay; settings: NCI-H460, 24 h, read-out: Activity
[1] = Cytotoxicity against human COLO205 cells assessed as cell growth at 10 uM after 24 hrs by SRB assay; settings: COLO 205, 24 h, read-out: Activity
[2] = Cytotoxicity against human HCT15 cells assessed as cell growth at 10 uM after 24 hrs by SRB assay; settings: HCT-15, 24 h, read-out: Activity
HT-29 = test: Cytotoxicity against human HT-29 cells assessed as cell growth at 10 uM after 24 hrs by SRB assay; settings: HT-29, 24 h, read-out: Activity
[3] = Cytotoxicity against human SW620 cells assessed as cell growth at 10 uM after 24 hrs by SRB assay; settings: SW-620, 24 h, read-out: Activity
[4] = Cytotoxicity against human SF295 cells assessed as cell growth at 10 uM after 24 hrs by SRB assay; settings: SF-295, 24 h, read-out: Activity
U-251 = test: Cytotoxicity against human U251 cells assessed as cell growth at 10 uM after 24 hrs by SRB assay; settings: U-251, 24 h, read-out: Activity
SK-MEL-5 [5] = test: Cytotoxicity against human SK-MEL-5 cells assessed as cell growth at 10 uM after 24 hrs by SRB assay; settings: SK-MEL-5, 24 h, read-out: Activity
[6] = Cytotoxicity against human OVCAR5 cells assessed as cell growth at 10 uM after 24 hrs by SRB assay; settings: OVCAR-5, 24 h, read-out: Activity
[7] = Cytotoxicity against human OVCAR8 cells assessed as cell growth at 10 uM after 24 hrs by SRB assay; settings: OVCAR-8, 24 h, read-out: Activity
[8] = Cytotoxicity against human SKOV3 cells assessed as cell growth at 10 uM after 24 hrs by SRB assay; settings: SK-OV-3, 24 h, read-out: Activity
786-0 [9] = test: Cytotoxicity against human 786-0 cells assessed as cell growth at 10 uM after 24 hrs by SRB assay; settings: 786-0, 24 h, read-out: Activity
[10] = Cytotoxicity against human UO31 cells assessed as cell growth at 10 uM after 24 hrs by SRB assay; settings: UO-31, 24 h, read-out: Activity
[11] = Cytotoxicity against human Hs 578T cells assessed as cell growth at 10 uM after 24 hrs by SRB assay; settings: read-out: Activity
[12] = Cytotoxicity against human NCI60 cells assessed as growth inhibition at 10 uM after 24 hrs by SRB assay; settings: NCI60, 24 h
[13] = Cytotoxicity against human RPMI8226 cells assessed as cell growth at 10 uM after 24 hrs by SRB assay; settings: RPMI-8226, 24 h, read-out: Activity
[14] = Cytotoxicity against human HOP62 cells assessed as cell growth at 10 uM after 24 hrs by SRB assay; settings: HOP-62, 24 h, read-out: Activity
[15] = Cytotoxicity against human HOP92 cells assessed as cell growth at 10 uM after 24 hrs by SRB assay; settings: HOP-92, 24 h, read-out: Activity
NCI-H226 [16] = test: Cytotoxicity against human NCI-H226 cells assessed as cell growth at 10 uM after 24 hrs by SRB assay; settings: NCI-H226, 24 h, read-out: Activity
A498 = test: Cytotoxicity against human A498 cells assessed as growth inhibition at 10 uM after 24 hrs by SRB assay; settings: A498, 24 h, read-out: GI
NCI-H226 [17] = test: Cytotoxicity against human NCI-H226 cells assessed as growth inhibition at 10 uM after 24 hrs by SRB assay; settings: NCI-H226, 24 h, read-out: GI
[18] = Cytotoxicity against human HOP92 cells assessed as growth inhibition at 10 uM after 24 hrs by SRB assay; settings: HOP-92, 24 h, read-out: GI
[19] = Cytotoxicity against human UO31 cells assessed as growth inhibition at 10 uM after 24 hrs by SRB assay; settings: UO-31, 24 h, read-out: GI
[20] = Cytotoxicity against human RPMI8226 cells assessed as growth inhibition at 10 uM after 24 hrs by SRB assay; settings: RPMI-8226, 24 h, read-out: GI
SK-MEL-5 [21] = test: Cytotoxicity against human SK-MEL-5 cells assessed as growth inhibition at 10 uM after 24 hrs by SRB assay; settings: SK-MEL-5, 24 h, read-out: GI
MDA-MB-231 = test: Cytotoxicity against human MDA-MB-231 cells assessed as growth inhibition at 10 uM after 24 hrs by SRB assay; settings: MDA-MB-231, 24 h, read-out: GI
T47D = test: Cytotoxicity against human T47D cells assessed as growth inhibition at 10 uM after 24 hrs by SRB assay; settings: read-out: GI
K562 = test: Cytotoxicity against human K562 cells assessed as growth inhibition at 10 uM after 24 hrs by SRB assay; settings: K562, 24 h, read-out: GI
[22] = Cytotoxicity against human HOP92 cells assessed as cell growth at 10^-7 M after 24 hrs by SRB assay; settings: HOP-92, 24 h, read-out: Activity
[23] = Cytotoxicity against human UO31 cells assessed as cell growth at 10^-7 M after 24 hrs by SRB assay; settings: UO-31, 24 h, read-out: Activity
M14 = test: Cytotoxicity against human M14 cells assessed as cell growth at 10^-4 M after 24 hrs by SRB assay; settings: M14, 24 h, read-out: Activity
[24] = Cytotoxicity against human PC3 cells assessed as cell growth at 10^-6 M after 24 hrs by SRB assay; settings: PC-3, 24 h, read-out: Activity
[25] = Cytotoxicity against human BT549 cells assessed as cell growth at 10^-6 M after 24 hrs by SRB assay; settings: BT-549, 24 h, read-out: Activity
SR = test: Cytotoxicity against human SR cells after 24 hrs by SRB assay
[26] = Cytotoxicity against human LOXIMVI cells assessed as cell growth at 10^-8 M after 24 hrs by SRB assay; settings: LOX IMVI, read-out: Activity
786-0 [27] = test: Cytotoxicity against human 786-0 cells assessed as cell growth at 10^-5 M after 24 hrs by SRB assay; settings: 786-0, 24 h, read-out: Activity
[28] = Cytotoxicity against human BT549 cells assessed as cell growth at 10^-5 M after 24 hrs by SRB assay; settings: BT-549, 24 h, read-out: Activity
NCI-H522 = test: Cytotoxicity against human NCI-H522 cells assessed as growth inhibition at 10 uM after 24 hrs by SRB assay; settings: NCI-H522, 24 h, read-out: GI

| Structure (SMILES) | growth at 10 µM (NCI-H322M) [%] | growth at 10 µM (NCI-H460) [%] | growth at 10 µM [1] [%] | growth at 10 µM [2] [%] | growth at 10 µM (HT-29) [%] | growth at 10 µM [3] [%] | growth at 10 µM [4] [%] | growth at 10 µM (U-251) [%] | growth at 10 µM (SK-MEL-5 [5]) [%] | growth at 10 µM [6] [%] | growth at 10 µM [7] [%] | growth at 10 µM [8] [%] | growth at 10 µM (786-0 [9]) [%] | growth at 10 µM [10] [%] | growth at 10 µM [11] [%] | inhibition at 10 µM [12] [%] | growth at 10 µM [13] [%] | growth at 10 µM [14] [%] | growth at 10 µM [15] [%] | growth at 10 µM (NCI-H226 [16]) [%] | further results |
| --- | --- | --- | --- | --- | --- | --- | --- | --- | --- | --- | --- | --- | --- | --- | --- | --- | --- | --- | --- | --- | --- |
| Cc1cc(Cl)ccc1C(=O)Nc1cc(-c2cccnc2)nc(NCCCN2CCOCC2)n1 | 102 | 110 | 101 | 104 | 95.7 | 99 | 97.9 | 96.2 | 92.7 | 94.1 | 96.9 | 93.7 | 77.2 | 89.2 | 96.9 | 1.46 | 104 | 91.5 | 95.9 | 77.6 | inhibition of growth at 10 µM (A498): 22.8%; inhibition of growth at 10 µM (NCI-H226 [17]): 22.4% |
| COCCCNc1nc(NC(=O)c2cc(Br)cc(C(F)(F)F)c2)cc(-c2cccnc2)n1 | 99.9 | 85.7 | 96.4 | 85.9 | 83.7 | 86.9 | 89.2 | 85.9 | 70.6 | 100 | 87.5 | 92.2 | 85.8 | 60.5 | 83 | 11.3 | 65.6 | 91.8 | 57.9 | 91.8 | inhibition of growth at 10 µM [18]: 42.1%; inhibition of growth at 10 µM (A498): 23.8%; inhibition of growth at 10 µM [19]: 39.5%; inhibition of growth at 10 µM [20]: 34.4%; inhibition of growth at 10 µM (SK-MEL-5 [21]): 29.5%; inhibition of growth at 10 µM (MDA-MB-231): 24.2%; inhibition of growth at 10 µM (T47D): 35%; inhibition of growth at 10 µM (K562): 26.7% |
| O=C(Nc1cc(-c2cccnc2)nc(NCCCN2CCOCC2)n1)c1cc(Br)cc(C(F)(F)F)c1 | 58.2 | 56 | 1.11 | 6.87 | 8.99 | 75.4 | -22.8 | 33.1 | 3.78 | 81.4 | 58.5 | 92.3 | 51.8 | 42 | 54 | 57.2 | 30.2 | 69.4 | 34.6 | 73.8 | growth at 0.1 µM [22]: 80%; growth at 0.1 µM [23]: 90%; growth at 100 µM (M14): -71%; growth at 1 µM [24]: 92%; growth at 1 µM [25]: 83%; GI50 (SR; read-out: GI50): 2.6 µM; CC50 (SR; read-out: LC50 (the source's name)): > 100 µM; TGI (SR; read-out: TGI): 41.7 µM; GI50 (SR; read-out: pGI50 (converted)): 2.63 µM; CC50 (SR; read-out: pLC50 (the source's name) (converted)): > 100 µM; TGI (SR; read-out: pTGI (converted)): 41.7 µM; growth at 0.01 µM [26]: 93%; growth at 10 µM (786-0 [27]): -80%; growth at 10 µM [28]: 19% |
| COCCCNc1nc(NC(=O)c2cc(OC)cc(OC)c2)cc(-c2cccnc2)n1 | 92.8 | 95.2 | 109 | 90.3 | 95.5 | 101 | 100 | 96.8 | 72.4 | 95.7 | 79.3 | 105 | 83.3 | 56.7 | 95.3 | 8.06 | 69.3 | 91.3 | 52.6 | 96.5 | inhibition of growth at 10 µM [18]: 47.4%; inhibition of growth at 10 µM (NCI-H522): 23.5%; inhibition of growth at 10 µM [19]: 43.3%; inhibition of growth at 10 µM [20]: 30.6%; inhibition of growth at 10 µM (SK-MEL-5 [21]): 27.6%; inhibition of growth at 10 µM (MDA-MB-231): 30.9%; inhibition of growth at 10 µM (T47D): 36.2% |
| O=C(Nc1cc(-c2cccnc2)nc(NCCCN2CCOCC2)n1)c1ccc(F)cc1Cl | 88.2 | 94.8 | 99.5 | 94.5 | 87.3 | 90.3 | 100 | 92 | 88 | 100 | 94.2 | 101 | 89.2 | 77 | 105 | 3.57 | 90 | 95.5 | 91.2 | 108 | inhibition of growth at 10 µM [19]: 23% |
| COCCCNc1nc(NC(=O)c2ccc(Cl)cc2C)cc(-c2cccnc2)n1 | 102 | 102 | 111 | 109 | 105 | 109 | 104 | 112 | 84.1 | 91.6 | 94.2 | 98.4 | 85.4 | 95.9 | 103 | 0.78 | 90.2 | 99.3 | 67 | 89.1 | inhibition of growth at 10 µM [18]: 33%; inhibition of growth at 10 µM (NCI-H522): 21.4% |
| COc1cc(OC)cc(C(=O)Nc2cc(-c3cccnc3)nc(NCCCN3CCOCC3)n2)c1 | 90.9 | 95.3 | 94.3 | 90.6 | 85.2 | 99.9 | 101 | 90.5 | 68.3 | 100 | 91.8 | 93.9 | 84 | 53.6 | 69 | 8.88 | 79.1 | 87.8 | 67.7 | 85.7 | inhibition of growth at 10 µM [19]: 46.4%; inhibition of growth at 10 µM (SK-MEL-5 [21]): 31.7%; inhibition of growth at 10 µM (MDA-MB-231): 20.4%; inhibition of growth at 10 µM (T47D): 27.2%; inhibition of growth at 10 µM (K562): 25.9%; inhibition of growth at 10 µM (NCI-H226 [17]): 32.3% |
